# Where two headings read alike, the source gives them in different places.
# Test system: HCV 1b genotype
# Assay: HCV Replicon assay (HCV-neo replicon cells, wild-type)
# Type: cell-based
# Description: An HCV Replicon assay was utilized in the present disclosure, and was prepared, conducted and validated as described in commonly owned PCT/US2006/022197 and in O′Boyle et. al. Antimicrob Agents Chemother, 2005 April; 49(4):1346-53. Assay methods incorporating luciferase reporters have also been used as described (Apath.com).
# HCV-neo replicon cells and replicon cells containing mutations in the NS5A region were used to test the currently described family of compounds. The compounds were determined to have more than 10-fold less inhibitory activity on cells containing mutations than wild-type cells. Thus, the compounds of the present disclosure can be effective in inhibiting the function of the HCV NS5A protein and are understood to be as effective in combinations as previously described in application PCT/US2006/022197 and commonly owned WO/04014852. Further, the compounds of the present disclosure can be effective against the HCV 1b genotype. It should also be understood that the compounds of the present disclosure can inhibit multiple genotypes of HCV. […] In one embodiment, compounds of the present disclosure are inhibitory versus 1a, 1b, 2a, 2b, 3a, 4a, and 5a genotypes.
# [1] = Hepatitis C virus, HCV 1b genotype replicon, read-out: 1b EC50 (in μM or range)
# [2] = Hepatitis C virus, HCV 1b genotype replicon, range class A-D, read-out: 1b EC50 (in μM or range)
# [3] = HCV 1b genotype replicon, range class A-D, read-out: 1b EC50 (in μM or range)
structure (smiles),measurement,setting,value
"CC(=O)N1CCC[C@H]1C(=O)Nc1ccc(C#Cc2ccc(NC(=O)[C@@H]3CCCN3C(=O)c3cccc4ccccc34)nc2)cc1 [Example D59, (2S)-1-Acetyl-N-(4-((6-((((2S)-1-(1-naphthoyl)-2-pyrrolidinyl)carbonyl)amino)-3-pyridinyl)ethynyl)phenyl)-2-pyrrolidinecarboxamide]",EC50,[1],1.48 µM
"O=C(Nc1ccc(C#Cc2ccc(NC(=O)[C@@H]3CCCN3C(=O)c3nc(Cl)cc4ccccc34)cc2)cc1)[C@@H]1CCCN1C(=O)c1nc(Cl)cc2ccccc12 [Example D31, (2S,2′S)-N,N′-(1,2-ethynediyldi-4,1-phenylene)bis(1-((3-chloro-1-isoquinolinyl)carbonyl)-2-pyrrolidinecarboxamide)]",EC50,[2],0.00457 to 0.099 µM
"O=C(Nc1ccc(C#Cc2ccc(NC(=O)C3CC(=O)N(CCc4cccs4)C3)cc2)cc1)C1CC(=O)N(CCc2cccs2)C1 (centres unmarked) [Example D10, N,N′-(1,2-ethynediyldi-4,1-phenylene)bis(5-oxo-1-(2-(2-thienyl)ethyl)-3-pyrrolidinecarboxamide)]",EC50,[2],1 to 10 µM
"CC(=O)N1CCN(C(C(=O)N2CCC[C@H]2C(=O)Nc2ccc(C#Cc3ccc(NC(=O)[C@@H]4CCCN4C(=O)C(c4ccccc4)N4CCN(C(C)=O)CC4)cc3)cc2)c2ccccc2)CC1 (stereo partly drawn) [VN49, (2S,2′S)-N,N′-(1,2-ethynediyldi-4,1-phenylene)bis(1-((4-acetyl-1-piperazinyl)(phenyl)acetyl)-2-pyrrolidinecarboxamide)]",EC50,[3],0.00457 to 0.099 µM
"CC(=O)N1CCC[C@H]1C(=O)Nc1ccc(C#Cc2ccc(NC(=O)[C@@H]3CCCN3C(=O)Cc3ccccc3)cc2)cc1 [Example D22, (2S)-1-Acetyl-N-(4-((4-((((2S)-1-(phenylacetyl)-2-pyrrolidinyl)carbonyl)amino)phenyl)ethynyl)phenyl)-2-pyrrolidinecarboxamide]",EC50,[1],0.14 µM
"COc1cccc2c(C(=O)N3CCC[C@H]3C(=O)Nc3ccc(C#Cc4ccc(NC(=O)[C@@H]5CCCN5C(=O)c5nc(Cl)cc6c(OC)cccc56)cc4)cc3)nc(Cl)cc12 [Example D33, (2S,2′S)-N,N′-(1,2-ethynediyldi-4,1-phenylene)bis(1-((3-chloro-5-methoxy-1-isoquinolinyl)carbonyl)-2-pyrrolidinecarboxamide)]",EC50,[2],0.00457 to 0.099 µM
"CN1CCN(C(C(=O)N2CCC[C@H]2C(=O)Nc2ccc(C#Cc3ccc(NC(=O)[C@@H]4CCCN4C(=O)C(c4ccccc4)N4CCN(C)CC4)cc3)cc2)c2ccccc2)CC1 (stereo partly drawn) [VA44, (2S,2′S)-N,N′-(1,2-ethynediyldi-4,1-phenylene)bis(1-((4-methyl-1-piperazinyl)(phenyl)acetyl)-2-pyrrolidinecarboxamide)]",EC50,"Hepatitis C virus, read-out: 1b EC50 (in μM or range), HCV 1b genotype replicon, range class A-D",< 0.00457 µM
"O=C(Nc1ccc(C#Cc2ccc(NC(=O)[C@@H]3CCCCN3C(=O)OCc3ccccc3)cc2)cc1)[C@@H]1CCCCN1C(=O)OCc1ccccc1 [Example D12, Dibenzyl (2S,2′S)-2,2′-(1,2-ethynediylbis(4,1-phenylenecarbamoyl))di(1-piperidinecarboxylate)]",EC50,[2],0.1 to 0.999 µM
"CN(C)[C@@H](C(=O)N1CCC[C@H]1C(=O)Nc1ccc(C#Cc2ccc(NC(=O)[C@@H]3CCCN3C(=O)[C@@H](c3ccccc3)N(C)C)cc2)cc1)c1ccccc1 [VN23, (2S,2′S)-N,N′-(1,2-ethynediyldi-4,1-phenylene)bis(1-((2R)-2-(dimethylamino)-2-phenylacetyl)-2-pyrrolidinecarboxamide)]",EC50,[2],< 0.00457 µM
"CN(C)C(C)(C(=O)N1CCC[C@H]1C(=O)Nc1ccc(C#Cc2ccc(NC(=O)[C@@H]3CCCN3C(=O)C(C)(c3ccccc3)N(C)C)cc2)cc1)c1ccccc1 (stereo partly drawn) [VN37, (2S,2′S)-N,N′-(1,2-ethynediyldi-4,1-phenylene)bis(1-(2-(dimethylamino)-2-phenylpropanoyl)-2-pyrrolidinecarboxamide)]",EC50,[2],< 0.00457 µM
"O=C(Nc1ccc(C#Cc2ccc(NC(=O)[C@@H]3CCCN3C(=O)C(c3ccccc3)N3CC[C@H](O)C3)cc2)cc1)[C@@H]1CCCN1C(=O)C(c1ccccc1)N1CC[C@H](O)C1 (stereo partly drawn) [VN51, (2S,2′S)-N,N′-(1,2-ethynediyldi-4,1-phenylene)bis(1-(((3S)-3-hydroxy-1-pyrrolidinyl)(phenyl)acetyl)-2-pyrrolidinecarboxamide)]",EC50,[2],0.00457 to 0.099 µM
"O=C(Nc1ccc(C#Cc2ccc(NC(=O)[C@@H]3CCCN3C(=O)c3nccn3Cc3ccccc3)cc2)cc1)[C@@H]1CCCN1C(=O)c1nccn1Cc1ccccc1 [Example D29, (2S,2′S)-N,N′-(1,2-ethynediyldi-4,1-phenylene)bis(1-((1-benzyl-1H-imidazol-2-yl)carbonyl)-2-pyrrolidinecarboxamide)]",EC50,[2],0.1 to 0.999 µM
"CCc1scnc1C(=O)N1CCC[C@H]1C(=O)Nc1ccc(C#Cc2ccc(NC(=O)[C@@H]3CCCN3C(=O)c3ncsc3CC)cc2)cc1 [Example D36.2, (2S,2′S)-N,N′-(4,4′-(ethyne-1,2-diyl)bis(4,1-phenylene))bis(1-(5-ethylthiazole-4-carbonyl)pyrrolidine-2-carboxamide)]",EC50,[3],0.00457 to 0.099 µM
"CC(=O)N[C@@H](C)C(=O)N1CCC[C@H]1C(=O)Nc1ccc(C#Cc2ccc(NC(=O)[C@@H]3CCCN3C(=O)[C@H](C)NC(C)=O)cc2)cc1 [VN15, (2S,2′S)-N,N′-(1,2-ethynediyldi-4,1-phenylene)bis(1-((2S)-2-acetamidopropanoyl)-2-pyrrolidinecarboxamide)]",EC50,[2],0.1 to 0.999 µM
"O=C(Nc1ccc(C#Cc2ccc(NC(=O)[C@@H]3CCCN3C(=O)/C=C/c3ccccc3)nc2)cn1)[C@@H]1CCCN1C(=O)/C=C/c1ccccc1 [Example D49, (2S,2′S)-N,N′-(1,2-ethynediyldi-5,2-pyridinediyl)bis(1-((2E)-3-phenyl-2-propenoyl)-2-pyrrolidinecarboxamide)]",EC50,[2],0.1 to 0.999 µM
"O=C(Nc1ccc(C#Cc2ccc(NC(=O)[C@@H]3CCCN3C(=O)[C@H]3CCCO3)cc2)cc1)[C@H]1CCCO1 [Example D25, 1-((2R)-Tetrahydro-2-furanylcarbonyl)-N-(4-((4-(((2R)-tetrahydro-2-furanylcarbonyl)amino)phenyl)ethynyl)phenyl)-L-prolinamide]",EC50,[2],1 to 10 µM
"O=C(Nc1ccc(C#Cc2ccc(NC(=O)[C@@H]3CCCN3C(=O)Cc3ccccc3)cn2)nc1)[C@@H]1CCCN1C(=O)Cc1ccccc1 [Example D52, (2S,2′S)-N,N′-(6,6′-(ethyne-1,2-diyl)bis(pyridine-6,3-diyl))bis(1-(2-phenylacetyl)pyrrolidine-2-carboxamide)]",EC50,[2],0.00457 to 0.099 µM
"O=C(Nc1cccc(C#Cc2cccc(NC(=O)[C@@H]3CCCN3C(=O)OCc3ccccc3)n2)n1)[C@@H]1CCCN1C(=O)OCc1ccccc1 [YQ1, dibenzyl (2S,2′S)-2,2′-(1,2-ethynediylbis(6,2-pyridinediylcarbamoyl))di(1-pyrrolidinecarboxylate)]",EC50,[1],0.007 µM
"CC(C)(C)OC(=O)N[C@H](C(=O)N1CCC[C@H]1C(=O)Nc1ccc(C#Cc2ccc(NC(=O)[C@@H]3CCCN3C(=O)[C@@H](NC(=O)OC(C)(C)C)c3ccccc3)cc2)cc1)c1ccccc1 [VN22, Step a, di-tert-butyl(1,2-ethynediylbis(4,1-phenylenecarbamoyl(2S)-2,1-pyrrolidinediyl((1S)-2-oxo-1-phenyl-2,1-ethanediyl)))biscarbamate]",EC50,[2],< 0.00457 µM
"O=C(Nc1ccc(C#Cc2ccc(NC(=O)[C@@H]3CCCN3C(=O)/C=C/c3ccccc3)cn2)nc1)[C@@H]1CCCN1C(=O)/C=C/c1ccccc1 [Example D53, (2S,2′S)-N,N′-(1,2-ethynediyldi-2,5-pyridinediyl)bis(1-((2E)-3-phenyl-2-propenoyl)-2-pyrrolidinecarboxamide)]",EC50,[1],2.73 µM
